The source of these data is publication PMC7802075 (ACS Infectious Diseases, 2020).

Where a name gives a salt, the structure may show the parent alone. Where a SMILES comes first, the peptide text is derived from it. The star is where a group is joined. Tfa = O=C(C(F)(F)F)*

In one experiment the target is T1, LmjIPCS (inositol phosphorylceramide synthase from L. major) (Leishmania major, UniProt E9AFX2).
T1 sequence (E9AFX2 1-338): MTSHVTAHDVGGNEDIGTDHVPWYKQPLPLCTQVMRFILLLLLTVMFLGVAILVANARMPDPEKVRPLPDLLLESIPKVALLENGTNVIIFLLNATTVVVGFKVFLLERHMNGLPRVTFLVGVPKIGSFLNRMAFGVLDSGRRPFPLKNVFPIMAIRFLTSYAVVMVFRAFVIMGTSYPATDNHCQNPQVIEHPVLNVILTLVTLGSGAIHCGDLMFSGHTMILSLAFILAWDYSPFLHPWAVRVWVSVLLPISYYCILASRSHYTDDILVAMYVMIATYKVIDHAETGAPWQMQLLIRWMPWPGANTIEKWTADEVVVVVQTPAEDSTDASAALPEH
In words: biochemical. The experiment is classed as biochemical. Set-up: inhibition: dose or concentration left out as unconfirmed.
Details: not given
In the case of `CNC(=N)NCCC[C@H](N)C(=O)O` [TARGININE], the “20mM inhibition LmjIPCS” value is on record as -2%.

For `Cc1scc2c1N(C(=O)CN1CCN(C)CC1)c1ccccc1NC2=O` [TELENZEPINE], the “20mM inhibition LmjIPCS” value was determined as 35%.

In the case of `CN(C)[C@@H]1C(O)=C(C(N)=O)C(=O)[C@@]2(O)C(O)=C3C(=O)c4c(O)cccc4[C@@](C)(O)[C@H]3C[C@@H]12` [TETRACYCLINE], the “20mM inhibition LmjIPCS” value came to 36%.

In the case of `COc1ccc2cc1Oc1ccc(cc1)C[C@H]1c3cc(c(OC)cc3CCN1C)Oc1c(OC)c(OC)cc3c1[C@H](C2)N(C)CC3` [TETRANDRINE], the “20mM inhibition LmjIPCS” value is on record as 65%.

As to `Cc1cccc(N(C)C(=S)Oc2ccc3ccccc3c2)c1` [TOLNAFTATE], the “20mM inhibition LmjIPCS” value amounted to 62%.

As for `CC1(C)O[C@@H]2C[C@H]3[C@@H]4CCC5=CC(=O)C=C[C@]5(C)[C@@]4(F)[C@@H](O)C[C@]3(C)[C@]2(C(=O)CO)O1` [TRIAMCINOLONE ACETONIDE], the “20mM inhibition LmjIPCS” value was found to be 37%.

As for `OC(CCN1CCCCC1)(c1ccccc1)C1CCCCC1` (centres unmarked) [TRIHEXYPHENIDYL], the “20mM inhibition LmjIPCS” value was 57%.

Turning to `Cc1ccc(/C(=C\CN2CCCC2)c2ccccn2)cc1` [TRIPROLIDINE], the “20mM inhibition LmjIPCS” value is 42%.

On to `N[C@@H](Cc1c[nH]c2ccccc12)C(=O)O` [TRYPTOPHAN], for which the “20mM inhibition LmjIPCS” value was found to be 34%.

As for `CC(C)(C)NCC(O)c1ccccc1Cl` (centres unmarked) [TULOBUTEROL], the “20mM inhibition LmjIPCS” value is reported as 51%.

Staying with this experiment, now noted: NINDS set screen, compound at 20mM (so in the source).
For the compound `N#Cc1c(Cl)c(Cl)c(Cl)c(C#N)c1Cl` [TETRACHLOROISOPHTHALONITRILE], the “20mM inhibition LmjIPCS” value was determined as 15%.

The experiment is the same for the next values; noted with them: NINDS set screen, single concentration 20mM as printed.
As to `O=C(O)CN(CCN(CC(=O)O)CC(=O)O)CC(=O)O.[Na+].[Na+].[Na+]` [TRISODIUM ETHYLENEDIAMINE TETRACETATE], the “20mM inhibition LmjIPCS” value is recorded as -4.23%.

The same experiment, now with this note: NINDS set screen, single concentration printed as 20mM.
For the compound `c1ccc2[nH]c(-c3cscn3)nc2c1` [THIABENDAZOLE], the “20mM inhibition LmjIPCS” value is on record as 41%.

Consider `Cc1cc2cc3c(C)cc(=O)oc3c(C)c2o1` [TRIOXSALEN], for which the “20mM inhibition LmjIPCS” value came to 42%.

Still in this experiment, the particulars now being: NINDS set screen; read-out: inhibition LmjIPCS.
As for `CCCCNc1ccc(C(=O)OCCN(C)C)cc1` [TETRACAINE], the inhibition came out at 18%.

With `CN1CCN(CC/C=C2/c3ccccc3Sc3ccc(S(=O)(=O)N(C)C)cc32)CC1` [THIOTHIXENE], the inhibition is -24%.

As to `CCN(CC)CCNC(=O)c1cc(S(C)(=O)=O)ccc1OC` [TIAPRIDE], the inhibition was -5%.

With `CC1(C)O[C@@H]2[C@@H](CO[C@@]3(COS(N)(=O)=O)OC(C)(C)O[C@@H]23)O1` [TOPIRAMATE], the inhibition stood at 16%.

As to `CC(=O)OCC(COC(C)=O)OC(C)=O` [TRIACETIN], the inhibition came out at 29%.

Regarding `C[C@]12C=CC(=O)C=C1CC[C@H]1[C@@H]3C[C@@H](O)[C@](O)(C(=O)CO)[C@@]3(C)C[C@H](O)[C@@]12F` [TRIAMCINOLONE], the inhibition is -1.57%.

For the compound `COc1cc(C(=O)NCc2ccc(OCCN(C)C)cc2)cc(OC)c1OC` [TRIMETHOBENZAMIDE], the inhibition came out at 28%.

The same experiment, now with this note: read-out: 20mM inhibition LmjIPCS.
As to `CC[C@H]1OC(=O)[C@H](C)C(=O)[C@H](C)[C@@H](O[C@@H]2O[C@H](C)C[C@H](N(C)C)[C@H]2O)[C@](C)(OC)C[C@@H](C)C(=O)[C@H](C)[C@H]2N(CCCCn3cnc(-c4cccnc4)c3)C(=O)O[C@]12C` [TELITHROMYCIN], the inhibition at 20000 µM was 3.66%.

Turning to `c1ccc2c(c1)CCCC2C1=NCCN1` (centres unmarked) [TETRAHYDROZOLINE], the inhibition at 20000 µM was determined as 8%.

With `Cn1cnc2c1c(=O)[nH]c(=O)n2C` [THEOBROMINE], the inhibition at 20000 µM is 24%.

Consider `Cn1c(=O)c2[nH]cnc2n(C)c1=O` [THEOPHYLLINE], for which the inhibition at 20000 µM was found to be 11%.

Take `CS(=O)(=O)c1ccc([C@@H](O)[C@@H](CO)NC(=O)C(Cl)Cl)cc1` [THIAMPHENICOL]: the inhibition at 20000 µM was 0.377%.

On to `S=P(N1CC1)(N1CC1)N1CC1` [THIOTEPA], for which the inhibition at 20000 µM was determined as 11%.

On to `NC(Cc1cc(I)c(Oc2cc(I)c(O)c(I)c2)c(I)c1)C(=O)O` (centres unmarked) [THYROXINE], for which the inhibition at 20000 µM turned out to be 12%.

`CCS(=O)(=O)CCn1c([N+](=O)[O-])cnc1C` [TINIDAZOLE]: the inhibition at 20000 µM is 15%.

Consider `Cc1ccc(S(=O)(=O)NC(=O)NN2CCCCCC2)cc1` [TOLAZAMIDE], for which the inhibition at 20000 µM is -5%.

Turning to `c1ccc(CC2=NCCN2)cc1` [TOLAZOLINE], the inhibition at 20000 µM came to 2.77%.

For `Cc1ccc(C(=O)c2ccc(CC(=O)O)n2C)cc1` [TOLMETIN], the inhibition at 20000 µM is 4%.

On to `C[C@H]1CC[C@]2(NC1)O[C@H]1C[C@H]3[C@@H]4CC[C@H]5C[C@@H](O[C@@H]6O[C@H](CO)[C@H](O[C@@H]7O[C@H](CO)[C@@H](O)[C@H](O[C@@H]8OC[C@@H](O)[C@H](O)[C@H]8O)[C@H]7O[C@@H]7O[C@H](CO)[C@@H](O)[C@H](O)[C@H]7O)[C@H](O)[C@H]6O)CC[C@]5(C)[C@H]4CC[C@]3(C)[C@H]1[C@@H]2C` [TOMATINE], for which the inhibition at 20000 µM came out at 12%.

For the compound `Cc1cccc(Nc2ccncc2S(=O)(=O)NC(=O)NC(C)C)c1` [TORSEMIDE], the inhibition at 20000 µM was found to be 29%.

For `CCOC(=O)[C@H](CCc1ccccc1)N[C@@H](C)C(=O)N1[C@H](C(=O)O)C[C@H]2CCCC[C@@H]21` [TRANDOLAPRIL], the inhibition at 20000 µM stood at 7.54%.

Regarding `CC(C)(C)C(=O)C(Oc1ccc(Cl)cc1)n1cncn1` (centres unmarked) [TRIADIMEFON], the inhibition at 20000 µM is 17%.

For `CC(=O)OCC(=O)[C@@]1(O)[C@H](OC(C)=O)C[C@H]2[C@@H]3CCC4=CC(=O)C=C[C@]4(C)[C@@]3(F)[C@@H](O)C[C@@]21C` [TRIAMCINOLONE DIACETATE], the inhibition at 20000 µM came out at 10%.

In the case of `C[C@@H]1O[C@@H](OC[C@H]2O[C@@H](Oc3c(-c4ccc(OCCO)c(OCCO)c4)oc4cc(OCCO)cc(O)c4c3=O)[C@H](O)[C@@H](O)[C@@H]2O)[C@H](O)[C@H](O)[C@H]1O` [TROXERUTIN], the inhibition at 20000 µM turned out to be 20%.

`NCCc1c[nH]c2ccccc12` [TRYPTAMINE]: the inhibition at 20000 µM was found to be 27%.

For the compound `CCCCCC(C)N` (centres unmarked) [TUAMINOHEPTANE], the inhibition at 20000 µM was found to be 26%.

With `CC[C@H]1OC(=O)C[C@@H](O)[C@H](C)[C@@H](O[C@@H]2O[C@H](C)[C@@H](O[C@H]3C[C@@](C)(O)[C@@H](O)[C@H](C)O3)[C@H](N(C)C)[C@H]2O)[C@@H](CC=O)C[C@@H](C)C(=O)/C=C/C(C)=C/[C@@H]1CO[C@@H]1O[C@H](C)[C@@H](O)[C@@H](OC)[C@H]1OC` [TYLOSIN], the inhibition at 20000 µM amounted to 5%.

With `CC(C)[C@H](NC(=O)[C@H](Cc1ccc(O)cc1)NC(=O)[C@@H](NC(=O)C(F)(F)F)C(C)C)C(=O)O` [Tfa-VAL-TYR-VAL-OH] (Tfa-Val-Tyr-Val-OH), the inhibition at 20000 µM is 7.54%.

Consider `CC(=O)c1c(O)c(C)c(O)c2c1OC1=CC(=O)C(C(C)=O)C(=O)C12C` (centres unmarked) [USNIC ACID], for which the inhibition at 20000 µM turned out to be 29%.

In the case of `CCCCC(=O)Oc1ccccc1C(=O)O` [VALERYL SALYCILATE], the inhibition at 20000 µM came out at 10%.

The experiment is the same for the next values; noted with them: read-out: inhibition LmjIPCS.
For the compound `COc1cc([C@@H]2c3cc4c(cc3[C@@H](O[C@@H]3O[C@@H]5CO[C@@H](c6cccs6)O[C@H]5[C@H](O)[C@H]3O)[C@H]3COC(=O)[C@H]23)OCO4)cc(OC)c1O` [TENIPOSIDE], the inhibition amounted to 23%.

On to `CN1C(C(=O)Nc2ccccn2)=C(O)c2sccc2S1(=O)=O` [TENOXICAM], for which the inhibition turned out to be 7.55%.

In the case of `COc1cc2c(cc1OC)[C@@H]1Cc3ccc(OC)c(OC)c3CN1CC2` [TETRAHYDROPALMATINE], the inhibition turned out to be 29%.

`Nc1nc2nc[nH]c2c(=S)[nH]1` [THIOGUANINE]: the inhibition worked out at 6%.

Consider `CC(C)(C)NC[C@H](O)COc1nsnc1N1CCOCC1` [TIMOLOL], for which the inhibition was 22%.

For `CCCCNC(=O)NS(=O)(=O)c1ccc(C)cc1` [TOLBUTAMIDE], the inhibition is 30%.

Take `NS(=O)(=O)c1cc2c(cc1Cl)NC(C(Cl)Cl)NS2(=O)=O` (centres unmarked) [TRICHLORMETHIAZIDE]: the inhibition was 20%.

For the compound `CO[C@H]1C[C@H](O[C@H]2[C@H](C)[C@@H](O[C@@H]3O[C@H](C)C[C@H](N(C)C)[C@H]3OC(C)=O)[C@@H](C)C[C@@]3(CO3)C(=O)[C@H](C)[C@@H](OC(C)=O)[C@@H](C)[C@@H](C)OC(=O)[C@@H]2C)O[C@@H](C)[C@@H]1OC(C)=O` [TROLEANDOMYCIN], the inhibition worked out at 18%.

As for `C[C@H](CCC(=O)O)[C@H]1CC[C@H]2[C@@H]3[C@@H](O)C[C@@H]4C[C@H](O)CC[C@]4(C)[C@H]3CC[C@]12C` [URSODIOL], the inhibition worked out at 8%.

Regarding `CCCC(CCC)C(=O)O` [VALPROATE SODIUM], the inhibition amounted to 0.506%.

Staying with this experiment, now noted: screening of NINDS set, sheet Screen 1; read-out: inhibition LmjIPCS.
Turning to `CC(C)(C)NCC(O)c1cc(O)cc(O)c1` (centres unmarked) [TERBUTALINE], the inhibition turned out to be 9%.

Consider `O=c1oc2cc(O)ccc2s1` [TIOXOLONE], for which the inhibition came to 3%.

On to `CCOC(=O)NNc1nncc2ccccc12` [TODRALAZINE], for which the inhibition came out at 2%.

As for `Cc1c(Cl)cccc1Nc1ccccc1C(=O)O` [TOLFENAMIC ACID], the inhibition came out at 4.68%.

In the case of `NC[C@H]1CC[C@H](C(=O)O)CC1` [TRANEXAMIC ACID], the inhibition is 2.2%.

Take `CC(CN(C)C)CN1c2ccccc2CCc2ccccc21` (centres unmarked) [TRIMIPRAMINE]: the inhibition is 2%.

`Cc1onc(-c2ccccc2)c1-c1ccc(S(N)(=O)=O)cc1` [VALDECOXIB]: the inhibition is 3.24%.

Take `CC(C)[C@H](N)C(=O)N[C@@H](Cc1c[nH]c2ccccc12)C(=O)O` [VALYLTRYPTOPHAN] (H-Val-Trp-OH): the inhibition came out at 6%.

Usually inhibition stands for the drop in the measured response relative to a control, in per cent.
